Reference: patent US20240124486A1, “MACROCYCLIC TLR7 AGONIST, PREPARATION METHOD THEREFOR, PHARMACEUTICAL COMPOSITION AND USE THEREOF” (SHANGHAI VISONPHARMA CO., LTD., priority 2020, published 2024)

Key:
human TLR7 = biological target: T1, human TLR7 (Homo sapiens, UniProt Q9NYK1); experiment: Agonistic activity on human TLR7 in HEK-Blue hTLR7 cell line (QUANTI-Blue reporter); type: cell-based; settings: HEK-Blue hTLR7 cells, 16-22 h incubation, absorption at 630 nm; read-out: EC50 value of the agonistic effect on human TLR7
T1 construct: host or cells: HEK-Blue hTLR7 (HEK293-derived reporter cells)
T1 sequence (Q9NYK1 27-1049): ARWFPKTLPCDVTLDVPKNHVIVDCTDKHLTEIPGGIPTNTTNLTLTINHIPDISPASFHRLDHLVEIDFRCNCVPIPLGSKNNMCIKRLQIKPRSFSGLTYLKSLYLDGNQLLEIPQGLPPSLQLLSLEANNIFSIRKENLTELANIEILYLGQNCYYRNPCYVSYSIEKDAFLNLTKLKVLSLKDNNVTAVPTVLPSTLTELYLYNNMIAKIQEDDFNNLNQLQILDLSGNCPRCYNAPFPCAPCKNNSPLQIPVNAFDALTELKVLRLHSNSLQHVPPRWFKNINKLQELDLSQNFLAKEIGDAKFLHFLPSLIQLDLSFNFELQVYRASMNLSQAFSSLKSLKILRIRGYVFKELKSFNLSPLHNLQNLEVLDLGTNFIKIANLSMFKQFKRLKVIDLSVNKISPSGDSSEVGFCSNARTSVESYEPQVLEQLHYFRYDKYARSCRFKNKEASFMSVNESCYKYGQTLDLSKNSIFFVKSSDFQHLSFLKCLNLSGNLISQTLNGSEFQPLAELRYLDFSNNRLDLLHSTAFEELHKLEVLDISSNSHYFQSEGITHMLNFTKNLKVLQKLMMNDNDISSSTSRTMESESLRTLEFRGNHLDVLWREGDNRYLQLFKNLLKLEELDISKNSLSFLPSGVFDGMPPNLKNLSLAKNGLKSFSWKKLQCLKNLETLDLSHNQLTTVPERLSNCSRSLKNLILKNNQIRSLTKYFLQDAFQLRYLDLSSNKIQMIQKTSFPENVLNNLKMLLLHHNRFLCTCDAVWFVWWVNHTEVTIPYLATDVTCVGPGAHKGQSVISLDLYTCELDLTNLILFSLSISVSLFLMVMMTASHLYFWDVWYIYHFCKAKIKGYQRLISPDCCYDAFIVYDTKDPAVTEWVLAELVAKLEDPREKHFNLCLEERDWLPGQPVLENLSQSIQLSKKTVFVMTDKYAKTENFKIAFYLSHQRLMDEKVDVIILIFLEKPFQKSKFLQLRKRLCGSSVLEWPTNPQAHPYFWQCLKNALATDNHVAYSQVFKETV
Description: The TLR7 agonistic activity of the compounds of the invention in HEK-Blue™ hTLR7 cell line with stable expression of human TLR7 were assayed using the following method: • 1. Weighed the test compounds and prepared stock solutions with DMSO (Sigma) at a concentration of 10 mM. […] The highest concentration was 1 mM. • 2. The test compounds and DMSO control were diluted 10-fold in DPBS buffer (Gibco) and then added to a 96-well cell culture plate (Corning) at a volume of 20 μL/well. • 3. HEK-Blue™ hTLR7 cells (Invivogen) were digested with cell separation solution (Gibco), and counted (TC-20 cell counter, Bio-rad). Cells were diluted to 4.4E5/ml using DMEM cell medium (Gibco). Added the cells to a 96-well cell culture plate at a volume of 180 μL/well. The cells were incubated for 16-22 h at 37° C. in a 5% CO2 incubator. • 4. Prepared QUANTI-Blue detection reagent (Invivogen), and added into a new 96-well plate at a volume of 180 μL/well. Twenty μL of cell culture supernatant was transferred from the cell culture plate and added to the 96-well plate and incubated at 37° C. for 1-3 hours. • 5. Neo2 multifunctional microplate reader (Bio-Tek) was used to measure the optical absorption at 630 nm, and the EC50 was calculated by GraphPad Prism.
The agonistic effect of the compounds of the invention on human TLR7 can be determined by the above experiments, and the measured EC50 value is shown in Table 1.

[1] = tested on: human peripheral blood mononuclear cells; experiment: IFN-α production by human peripheral blood mononuclear cells stimulated by compounds (ELISA); type: cell-based; settings: human PBMC, about 8 hours, supernatant ELISA
Description: • 1. The frozen human peripheral blood mononuclear cells (Miaotong Biotechnology Co., LTD., PB010C) were dissolved in water bath at 37° C. After counting, the cells were diluted to 0.2M/mL, and 150 uL/well was added to the 96-well cell culture plate, and the cells were incubated for 40 hours. • 2. The test compounds were weighed and prepared with DMSO at a concentration of 10 mM. DMSO was used to dilute the test compounds by a 10-fold gradient, with a total of four concentration gradients. The highest concentration was 400 μM. • 3. The test compounds, DMSO control and positive controls were diluted 100 times with cell culture medium (RPMI 1640 cell medium, Gibco), and 50 μL was added to 96-well cell culture plates. • 4. The cells were incubated at 37° C. for about 8 hours, and the supernatant was collected by centrifugation. The level of IFN-α in the supernatant was determined by ELISA (IFN-α ELISA kit, Dakewe). • 5. Light absorption at 450 nm was measured by microplate reader, and IFN-α level in culture supernatant was quantified according to the standard curve.

Structure (SMILES) | EC50 (human TLR7) [nM] | IFN-α concentration post stimulation ([1]; compound 0.1 nM) [pg/mL] | IFN-α concentration post stimulation ([1]; compound 1 nM) [pg/mL] | IFN-α concentration post stimulation ([1]; compound 10 nM) [pg/mL]
Nc1nc2nc3c1[nH]c(=O)n3Cc1ccc(OC3CCNCC3)c(c1)C/C=C/CCO2 [Reference 1, reference compound] | 15 | 9 | 74 | 159
CCCCOc1nc(N)c2c(n1)N(Cc1cccc(CN3CCCC3)c1)CC(=O)N2 [Vesatolimod, reference compound] | – | – | 12 | 12
Nc1nc2nc3c1[nH]c(=O)n3Cc1ccc(Oc3ccc(CNC4CC4)cc3)c(c1)C/C=C\CCO2 [Reference 2, reference compound] | 31 | 8 | 161 | 558
Nc1nc2nc3c1[nH]c(=O)n3Cc1ccc(O)c(c1)C/C=C/CCO2 [Reference 3, reference compound] | 41 | 8 | 9 | 284

Further lines, with some results ahead:

EC50 (human TLR7) [nM] | Structure (SMILES) | IFN-α concentration post stimulation ([1]; compound 0.1 nM) [pg/mL] | IFN-α concentration post stimulation ([1]; compound 1 nM) [pg/mL] | IFN-α concentration post stimulation ([1]; compound 10 nM) [pg/mL]
14 | Nc1nc2nc3c1[nH]c(=O)n3Cc1cc3c(c(c1)OCCCCO2)CCN(C1CCC1)C3 [Compound I-60] | 12 | 2412 | 3127
10 | Nc1nc2nc3c1[nH]c(=O)n3Cc1cc(c3c(c1)CN(C1CCC1)CC3)CCCCCO2 [Compound I-37] | 428 | 1973 | 2078
2 | CC(C)N1CCc2cc3cc(c2C1)CCCCCOc1nc(N)c2[nH]c(=O)n(c2n1)C3 [Compound I-50] | 1509 | 2615 | 2173
105 | CC(C)(C(=O)O)N1CCc2c3cc(cc2C1)Cn1c(=O)[nH]c2c(N)nc(nc21)OCCCCC3 [Compound I-26] | 12 | 11 | 96
10 | CC(C)N1CCc2c3cc(cc2C1)Cn1c(=O)[nH]c2c(N)nc(nc21)OCCCCC3 [Compound I-35] | 251 | 2767 | 2776
6 | Nc1nc2nc3c1[nH]c(=O)n3Cc1cc(c3c(c1)CCN(C1CCC1)C3)CCCCCO2 [Compound I-51] | 530 | 2759 | 2472
11 | COCCN1CCc2c3cc(cc2C1)Cn1c(=O)[nH]c2c(N)nc(nc21)OCCCCC3 [Compound I-48] | 13 | 2431 | 2784
140 | Nc1nc2nc3c1[nH]c(=O)n3Cc1cc3c(c(c1)OC[C@@H]1CCC[C@H]1CO2)CCNC3 [Compound I-33] | – | – | –
